In data set [1] the test system is Influenza A virus. The data set can be described thus: Antiviral activity against Influenza A virus (A/Puerto Rico/8/1934(H1N1)) infected in MDCK cells incubated for 48 hrs by MTT assay. The format is functional, organism-based.
Data set [2] deals with Influenza A virus. The data set can be described thus: Antiviral activity against Influenza A virus (A/Puerto Rico/8/34(H1N1)) infected in MDCK cells assessed as reduction in HA mRNA level at 1 ng/ml pre-treated with virus for 30 mins followed by cell infection for 1 hr and measured after 24 hrs post infection by SYBR green dye-based qRT-PCR analysis. The data set is classed as functional, organism-based. Particulars: A/Puerto Rico/8/1934(H1N1), time 1470.0 min.

Data set [3] relates to Influenza A virus. The data set can be described thus: Antiviral activity against Influenza A virus (A/Puerto Rico/8/1934(H1N1)) infected in MDCK cells pre-treated with virus for 30 mins followed by cell infection for 1 hr by MTT assay. The format is functional, organism-based.
Data set [4] has as its system Influenza A virus. Nature of the data set: Antiviral activity against Influenza A virus (A/Puerto Rico/8/34(H1N1)) infected in MDCK cells assessed as reduction in M1 mRNA level at 1 ng/ml pre-treated with virus for 30 mins followed by cell infection for 1 hr and measured after 24 hrs post infection by SYBR green dye-based qRT-PCR analysis. The data set is classed as functional, organism-based. Particulars: A/Puerto Rico/8/1934(H1N1), time 1470.0 min.

In data set [5] the test system is MDCK. Nature of the data set: Inhibition of V-ATPase in dog MDCK cells assessed as decrease in fluorescence intensity at 5 uM incubated for 20 mins by acridine orange staining-based fluorescence quenching method (reference value: 100%). Particulars: Canis lupus familiaris. The data set is classed as cell-based.
Data set [6] deals with Influenza A virus. Nature of the data set: Antiviral activity against Influenza A virus (A/Puerto Rico/8/34(H1N1)) infected in MDCK cells assessed as reduction in NP expression level at 0.5 to 1 ng/ml pre-treated with virus for 30 mins followed by cell infection for 1 hr and measured after 24 hrs post infection by indirect immunofluorescence assay. The format is functional, organism-based. Particulars: A/Puerto Rico/8/1934(H1N1), dose 0.5-1 ng/ml, time 1470.0 min.

A short description of data set [7]: Cytotoxicity against dog MDCK cells incubated for 48 hrs by MTT assay. The format is cell-based, Canis lupus familiaris.
Data set [8] relates to SARS-CoV-2. Nature of the data set: Antiviral activity against SARS-CoV-2 nCoV-2019 BetaCoV/Wuhan/WIV04/2019 infected in Vero E6 cells assessed as reduction in NP expression at 0.005 to 0.5 ug/ml preincubated with cells for 1 hr followed by viral addition for 1 hr and measured at 24 hrs post infection by indirect immunofluorescence assay. Particulars: Severe acute respiratory syndrome coronavirus 2, dose 0.005-0.5 µg/ml, time 26.0 hrs. The data set is classed as functional, organism-based.

Data set [9] concerns SARS-CoV-2. Nature of the data set: Antiviral activity against SARS-CoV-2 nCoV-2019 BetaCoV/Wuhan/WIV04/2019 infected in Vero E6 cells assessed as S gene expression preincubated with cells for 1 hr followed by viral addition for 1 hr and measured at 24 hrs post infection by qRT-PCR method. The data set is classed as functional, organism-based. Particulars: Severe acute respiratory syndrome coronavirus 2, nCoV-2019 BetaCoV/Wuhan/WIV04/2019, Vero C1008.

For data set [10], the system named is SARS-CoV-2. The data set can be described thus: Antiviral activity against SARS-CoV-2 nCoV-2019 BetaCoV/Wuhan/WIV04/2019 infected in Vero E6 cells assessed as S gene expression preincubated with virus for 30 mins followed by cell infection for 1 hr and measured at 24 hrs post infection by qRT-PCR method. The format is functional, organism-based. Particulars: Severe acute respiratory syndrome coronavirus 2, nCoV-2019 BetaCoV/Wuhan/WIV04/2019, Vero C1008.

pIC50: −log10 of the molar value. Activity calls are given as the source filed them. No cut-off for these calls is given here.

`CO/C1=C/C(C)=C/[C@@H](C)[C@H](O)[C@@H](C)C/C(C)=C/C=C/[C@H](OC)[C@@H]([C@@H](C)[C@@H](O)[C@H](C)[C@]2(O)C[C@H](OC(=O)/C=C/C(=O)NC3=C(O)CCC3=O)[C@@H](C)[C@H](C(C)C)O2)OC1=O`: the pIC50 in [1] is 7.00; in data set [3], 9.77. The result in data set [2], in data set [4] and in [6] was Active. Moreover, the Flu intensity in data set [5] was determined as 78.4%. The midpoint of cytotoxicity in data set [7], the CC50 at 48 h, lay at 1310 nM.
`CO/C1=C/C(C)=C/[C@@H](C)[C@H](O)[C@@H](C)C/C(C)=C/C=C/[C@H](OC)[C@@H]([C@@H](C)[C@@H](O)[C@H](C)[C@]2(O)C[C@H](OC)[C@@H](C)[C@H](C(C)C)O2)OC1=O`: the pIC50 is 6.85 in data set [1] and 9.19 in data set [3]. In addition, the CC50 at 48 h in data set [7] came to 190 nM.
Turning to `CO/C1=C\C(C)=C\[C@@H](C)[C@@H](O)[C@@H](C)C/C(C)=C/C=C/[C@H](OC)[C@@H]([C@@H](C)[C@@H](O)[C@H](C)[C@@]2(O)C[C@@H](O)[C@H](C)[C@@H](C(C)C)O2)OC1=O` [BAFILOMYCIN A1], the values for the pIC50 in [1] and in [3] were 6.24 and 10.22, respectively. The Flu intensity in data set [5] was 85.3%. In data set [7], the CC50 at 48 h stood at 1410 nM.
Taken in the same sequence, the figures for `CO/C1=C/C(C)=C/[C@@H](C)[C@H](O)[C@@H](C)C/C(C)=C/C=C/[C@H](OC)[C@@H]([C@@H](C)[C@@H](O)[C@H](C)C(=O)/C=C/[C@H](C)[C@H](O)C(C)C)OC1=O` were 7.52, 10.00, 82.7% and 910 nM.
The like results for `CO/C1=C/C(C)=C/[C@@H](C)[C@H](O)[C@@H](C)C/C(C)=C/C=C/[C@H](OC)[C@@H]([C@@H](C)[C@@H](O)[C@H](C)[C@]2(OC)C[C@H](O)[C@@H](C)[C@H](C(C)C)O2)OC1=O` were, in that order, 6.77, 9.96, 88.7% and 1710 nM.
On to `CO/C1=C/C(C)=C/[C@@H](C)[C@H](O)[C@@H](C)C/C(C)=C/C=C/[C@H](OC)[C@@H]([C@@H](C)[C@@H](O)[C@H](C)[C@]2(OC)C[C@H](OC)[C@@H](C)[C@H](C(C)C)O2)OC1=O`, for which the pIC50 was 6.59 in data set [1] and 9.74 in data set [3]. The same compound showed a CC50 at 48 h in [7] of 1290 nM.
For the compound `CO/C1=C/C(C)=C/[C@@H](C)[C@H](O)[C@@H](C)C/C(C)=C/C=C/[C@H](OC)[C@@H]([C@@H](C)[C@@H](O)[C@H](C)C(=O)/C=C/C(C)=C/C(C)C)OC1=O`, the pIC50 in [1] was 6.34; in [3], 8.67. Also, the Flu intensity in data set [5] amounted to 93.5%. Besides, half-maximal cytotoxicity in [7] (CC50 at 48 h) was put at 3100 nM.
`CCOC(=O)c1c(CSc2ccccc2)n(C)c2cc(Br)c(O)c(CN(C)C)c12` [UMIFENOVIR]: the pIC50 is 6.34 in data set [1] and 6.40 in data set [3]. The CC50 at 48 h in data set [7] was found to be 46400 nM.
Consider `CO/C1=C/C(C)=C/[C@@H](C)[C@H](O)[C@@H](C)C/C(C)=C/C=C/[C@H](OC)[C@@H]([C@@H](C)[C@@H](O)[C@H](C)[C@]2(OC)C[C@H](OC(=O)/C=C/C(=O)NC3=C(O)CCC3=O)[C@@H](C)[C@H](C(C)C)O2)OC1=O`, for which the pIC50 in [1] is 7.30; in data set [3], 10.00; in data set [9] it was 8.29; in data set [10], 8.08. The result in data set [8], in data set [2], in data set [4] and in data set [6] was Active. Also, the Flu intensity in [5] came to 73.6%. Further, the CC50 at 48 h in [7] stood at 240 nM.

The values are drawn from ChEMBL document CHEMBL4813961, “Antiviral Bafilomycins from a Feces-Inhabiting Streptomyces sp” (J Nat Prod, 2021).
